Test results from patent US7358249B2, “Heterocyclic compounds having inhibitory activity against HIV integrase” (Shionogi & Co., Ltd., priority 2002, dated 2008).
Several values for one entry are separate records, joined by “and”; a condition that tells them apart may be missing. Identical values can stand only once. Counter-ions that a name gives are not always drawn.

**Q.** With `COCCCC(=O)c1ncc2cc(Cc3ccc(F)cc3)cnc2c1O` as the compound, how does the melting point read?
**A.** 117 to 118 °C

**Q.** Which melting point does the source give for `COC(=O)c1nc(NC(=O)Nc2ccccc2)c2cc(Cc3ccc(F)cc3)cnc2c1O` here?
**A.** 254 to 255 °C

**Q.** Which melting point does the source give for `CN(C)NC(=O)c1nc(-c2ccc(CO)cc2)c2cc(Cc3ccc(F)cc3)cnc2c1O` here?
**A.** 219 to 221 °C

**Q.** For `COC(=O)c1nc(N2CCCCS2(=O)=O)c2cc(Cc3ccccc3)cnc2c1O`, which melting point is on record?
**A.** 183 to 185 °C and 186 °C

**Q.** With `CC(C)NC(=O)c1nc(NS(C)(=O)=O)c2cc(Cc3ccc(F)cc3)cnc2c1O` as the compound, how does the melting point read?
**A.** 167 to 168 °C

**Q.** Which melting point does the source give for `O=C(NCc1ccc(F)cc1)c1c(O)c2ncc(Cc3ccccc3)cc2[nH]c1=O` here?
**A.** > 300 °C

**Q.** With `CC(C)OC(=O)c1cc(C(=O)O)c2cc(Cc3ccc(F)cc3)cnc2c1O` as the compound, how does the melting point read?
**A.** 249 to 251 °C (dec.)

**Q.** Which melting point does the source give for `CCC(=O)c1cc(C(=O)O)c2cc(Cc3ccc(F)cc3)cnc2c1O` here?
**A.** 235 to 237 °C

**Q.** With `CCCC(=O)c1cc(C(=O)O)c2cc(Cc3ccc(F)cc3)cnc2c1O` as the compound, how does the melting point read?
**A.** 232 to 234 °C

**Q.** For `CCCCC(=O)c1cc(C(=O)O)c2cc(Cc3ccc(F)cc3)cnc2c1O`, which melting point is on record?
**A.** 227 to 229 °C

**Q.** Which melting point does the source give for `COC(=O)c1cc(C(C)=O)c2cc(Cc3ccc(F)cc3)cnc2c1O` here?
**A.** 166 to 168 °C

**Q.** With `COCc1cc(C(=O)OC)c(O)c2ncc(Cc3ccc(F)cc3)cc12` as the compound, how does the melting point read?
**A.** 110 to 111 °C

**Q.** Which melting point does the source give for `CCN(C=O)c1cc(C(=O)OC)c(O)c2ncc(Cc3ccc(F)cc3)cc12` here?
**A.** 90 to 91 °C

**Q.** With `COC(=O)c1cc(CN2C(=O)CCCC2=O)c2cc(Cc3ccc(F)cc3)cnc2c1O` as the compound, how does the melting point read?
**A.** 154 to 156 °C

**Q.** For `CNC(=O)c1cc(C(=O)O)c2cc(Cc3ccc(F)cc3)cnc2c1O`, which melting point is on record?
**A.** 203 to 205 °C

**Q.** For `CN(C)C(=O)c1cc(C(=O)O)c2cc(Cc3ccc(F)cc3)cnc2c1O`, which melting point is on record?
**A.** 214.5 to 215.5 °C

**Q.** With `COC(=O)C=Cc1cc(C(=O)OC)c(O)c2ncc(Cc3ccc(F)cc3)cc12` as the compound, how does the melting point read?
**A.** 139 to 141 °C

**Q.** With `COC(=O)c1cc(C=CC(=O)O)c2cc(Cc3ccc(F)cc3)cnc2c1O` as the compound, how does the melting point read?
**A.** 235 to 237 °C

**Q.** For `COC(=O)c1cc(-c2ccccc2C=O)c2cc(Cc3ccc(F)cc3)cnc2c1O`, which melting point is on record?
**A.** 73 to 75 °C

**Q.** Which melting point does the source give for `COC(=O)c1cc(NCC(C)C)c2cc(Cc3ccc(F)cc3)cnc2c1O` here?
**A.** 249 to 251 °C

**Q.** Which melting point does the source give for `COCC(=O)Nc1cc(C(=O)OC)c(O)c2ncc(Cc3ccc(F)cc3)cc12` here?
**A.** 154 to 155 °C

**Q.** With `COC(=O)c1cc(NC(=O)c2ccccc2Cl)c2cc(Cc3ccc(F)cc3)cnc2c1O` as the compound, how does the melting point read?
**A.** 230 to 232 °C

**Q.** For `COC(=O)c1cc(N2CCNC2=O)c2cc(Cc3ccc(F)cc3)cnc2c1O`, which melting point is on record?
**A.** 248 to 250 °C

**Q.** For `CC(=O)N1CCC(OC(=O)c2cc(C(=O)NCCCO)c3cc(Cc4ccc(F)cc4)cnc3c2O)CC1`, which melting point is on record?
**A.** 97 to 99 °C

**Q.** With `COC(=O)c1cc(C(=O)NCCNC(C)=O)c2cc(Cc3ccc(F)cc3)cnc2c1O` as the compound, how does the melting point read?
**A.** 251 to 253 °C

**Q.** With `COC(=O)c1cc(C(=O)NC2CCOCC2)c2cc(Cc3ccc(F)cc3)cnc2c1O` as the compound, how does the melting point read?
**A.** 246 to 247 °C

**Q.** Which melting point does the source give for `COC(=O)c1cc(C(=O)NNC(=O)c2cccnc2)c2cc(Cc3ccc(F)cc3)cnc2c1O` here?
**A.** 184 to 185 °C

**Q.** Which melting point does the source give for `COC(=O)c1cc(C(=O)NNC(=O)c2ccccn2)c2cc(Cc3ccc(F)cc3)cnc2c1O` here?
**A.** 164 to 166 °C

**Q.** With `COC(=O)c1cc(C(=O)NCCN(C)C)c2cc(Cc3ccc(F)cc3)cnc2c1O` as the compound, how does the melting point read?
**A.** 115 to 116 °C

**Q.** Which melting point does the source give for `COC(=O)c1cc(C(=O)N(C)CC(=O)N(C)C)c2cc(Cc3ccc(F)cc3)cnc2c1O` here?
**A.** 99 to 100 °C

**Q.** Which melting point does the source give for `COC(=O)c1cc(C(=O)NCCOCCO)c2cc(Cc3ccc(F)cc3)cnc2c1O` here?
**A.** 162 to 163 °C

**Q.** For `COC(=O)c1cc(C(=O)N2CCC(O)CC2)c2cc(Cc3ccc(F)cc3)cnc2c1O`, which melting point is on record?
**A.** 196 to 197 °C

**Q.** For `CONC(=O)c1cc(C(=O)OC)c(O)c2ncc(Cc3ccc(F)cc3)cc12`, which melting point is on record?
**A.** 200 to 201 °C

**Q.** With `COC(=O)c1cc(C(=O)N2CCCC(=O)C2)c2cc(Cc3ccc(F)cc3)cnc2c1O` as the compound, how does the melting point read?
**A.** 228 to 229 °C

**Q.** With `COC(=O)c1cc(C(=O)NCC(C)C)c2cc(Cc3ccc(F)cc3)cnc2c1O` as the compound, how does the melting point read?
**A.** 178 to 179 °C

**Q.** For `CCOC(=O)CNNC(=O)c1cc(C(=O)OC)c(O)c2ncc(Cc3ccc(F)cc3)cc12`, which melting point is on record?
**A.** 184 to 185 °C

**Q.** For `COC(=O)c1cc(C(=O)NC2CCN(C(C)=O)CC2)c2cc(Cc3ccc(F)cc3)cnc2c1O`, which melting point is on record?
**A.** 214 to 215 °C

**Q.** With `COC(=O)c1cc(C(=O)NC2CCNCC2)c2cc(Cc3ccc(F)cc3)cnc2c1O` as the compound, how does the melting point read?
**A.** 232 to 233 °C

**Q.** Which melting point does the source give for `COC(=O)c1cc(C(=O)NNCC(=O)N(C)C)c2cc(Cc3ccc(F)cc3)cnc2c1O` here?
**A.** 170 to 172 °C

**Q.** Which melting point does the source give for `COC(=O)c1cc(NC(=O)c2ccnc(C)c2)c2cc(Cc3ccc(F)cc3)cnc2c1O` (as salt: salt) here?
**A.** 229 to 230 °C
